Laboratory results as given in US20080313748A1, “Transgenic Non-Human Animals Comprising the Human Udp-Glucuronosyltransferase 1A (Ugt1a) Gene Locus and Methods of Using Them” (priority 2004, published 2008).
Values joined by “and” are separate entries in the source; they are usually repeats but may differ in a detail not shown here. Identical values can stand only once. “Also recorded” adds a separate entry of the source. Like-named read-outs stand apart in the source and are kept apart here.

Key:
UGT1A1 = test system: UGT1A1
Protocol: (§1) Immunoblot Analysis. All Western blots were performed using NuPAGE Bis-Tris polyacrylamide gels as outlined by the supplier (Invitrogen, Carlsbad, Calif.). Protein was heated at 70° C. for 10 min in loading buffer and resolved in 4-12% Bis-Tris gels under denaturing conditions (50 mM MOPS, 50 mM Tris-base, pH 7.7, 0.1% SDS, 1 mM EDTA) prior to transferring the proteins to polyvinylidene difluoride membrane using a semidry transfer system (Norvex, England). The membrane was blocked with 5% nonfat dry milk in 10 mM Tris-HCl, pH7.4 containing 0.15 M NaCl and 0.05% Tween 20 (Tris-buffered saline) for 1 h at room temperature, followed by incubation with primary antibodies (mouse anti-human UGT1A1, UGT1A4 or UGT1A6) in Tris-buffered saline overnight at 4° C. Membranes were washed and exposed to horseradish peroxidase-conjugated secondary antibodies for 1 h at room temperature. Each membrane was again washed and the conjugated horseradish peroxidase was detected using the ECL plus Western blotting detection system (Amersham) and the proteins detected following exposure to X-ray film.

β-estradiol UGT activity [1] = assay: β-estradiol UGT activity in intestinal microsomes from PCN treated wild type mice; type: in vivo, mouse; conditions: WT mice
Protocol: (§2) Microsomal Protein Isolation from Transgenic Mouse Tissues.
(§3) Reactions were terminated by the addition of 100 μl of methanol followed by centrifugation at top speed for 15 minutes. A 100 μl sample of the quenched reaction was spotted onto pre-adsorbent area of the TLC plate and develop in n-butanol/acetone/acetic acid/water (35:35:10:20) to achieve separation. ^14C-Labeled glucuronides were visualized with a STORM 820™ PhosphorImager (Molecular Dynamics/Amersham Biosciences). Silica gel in regions corresponding to the glucuronide bands were then scraped from the TLC plates, radioactivity measured by liquid scintillation counting, and specific catalytic activities were calculated in picomoles of glucuronide formed/mg of protein/min.
(§4) Values are the mean±S.E.M from triplicate experiments.

β-estradiol UGT activity [2] = assay: β-estradiol UGT activity in intestinal microsomes from PCN and TCDD treated Tg-UGT1c mice; type: in vivo, mouse; conditions: for Induction of β-estradiol glucuronidation: large intestine microsomes, Tg-UGT1c mice
Protocol: as §2, §3, §4

human UGT1A4 = conditions: for UGT1A4 protein induction: small and large intestine
Description: (§5) Microsomal Protein Isolation from Transgenic Mouse Tissues. Using three animals per group, the liver, small and large intestinal tissues were collected from Tg-UGT1 and wild type mice. For the small and large intestine, the tissue was dissected open lengthwise and the luminal surface gently rinsed in 1.15% KCl before freezing on dry ice. Tissue samples from each treatment group were combined and frozen in liquid nitrogen in a porcelain mortar and pulverized under liquid nitrogen. A sample of the pulverized tissue was added to 5 volumes of 1.15% ice cold KCl and the tissue homogenized using a motorized glass-teflon homogenizer. The tissue homogenate was first centrifuged at 2,000×g for 10 min at 4° C. and the supernatant was collected. The supernatant was then centrifuged at 9,000×g for 10 min at 4° C. and this resulting supernatant centrifuged at 100,000×g for 60 min at 4° C. The pellet was resuspended in buffer (50 mM Tris-HCl pH 7.4, 10 mM MgCl2, 1 mM PMSF) and the protein concentration determined by the Bradford method.
as §1
(§6) For both TCDD and PCN, the administration was by the intraperitoneal route, and each mouse was treated every 24 hours over a three day period. Tissues from three mice were then pooled and pulverized under liquid nitrogen, and samples used for microsomal preparation as well as for the isolation of total RNA.
(§7) Three Tg-UGT^1c or wild type (WT) mice were treated by intraperitoneal injection every 24 hours with either DMSO, TCDD (16 μg/kg) or PCN (10 mg/kg) for 3 days. After 72 hours, the small intestines from each treatment group were combined and the large intestines from each treatment group were combined and the tissues pulverized under liquid nitrogen. A sample of each tissue was then used to prepare microsomes or to isolate total RNA. FIG. 4A: Western blot analysis of small and large intestinal microsomal protein using UGT1A1-, UGT1A4- or UGT1A6 specific antibodies. Included as control is a sample of each protein generated from the expression of cDNAs in stably transfected HEK293 cells. FIG. 4B: RNA prepared from the same samples of tissue were used in RT-PCR studies and the isoform specific products identified in ethidium bromide stained agarose gels.
(§8) Induction of the UGT1 locus in liver by PCN and TCDD. […] Wild type and Tg-UGT^1c mice were treated every 24 hours with TCDD (16 μg/kg) or PCN (10 mg/kg) by intraperitoneal injection for 3 days, and the livers from three animals per group combined and used to prepare microsomes or to isolate total RNA.

human UGT1A1 = conditions: for UGT1A1 protein induction: small and large intestinal microsomes, TCDD 16 μg/kg or PCN
Description: as §5, §1, §6, §7, §8

human UGT1A6 = conditions: for UGT1A6 protein regulation: small and large intestine
Description: as §5, §1, §6, §7, §8

[3] = test system: UGT1A gene transcripts (human UGT1 locus); assay: Isoform-specific RT-PCR of UGT1A gene transcripts in tissues of treated Tg-UGT1c mice; type: in vivo, mouse; conditions: for UGT1A1 RNA induction / UGT1A4 RNA / UGT1A6 RNA induction / UGT1A gene transcript induction: RT-PCR; for UGT1A gene transcript induction: small and large intestine, i.p. 3 days
Protocol: Analysis of UGT1 gene expression patterns by reverse transcription-PCR: For RNA isolation from transgenic and wild type (WT) mouse tissues, the tissues from three animals were combined as described in the methods that outline the preparation of microsomal proteins. After pulverizing in liquid nitrogen, approximately 100 mg of tissue was homogenized in 1 ml of TRIzol™ solution, and the RNA extracted following the manufacturer's instructions. For each reverse transcription reaction, 2 μg of total RNA was denatured by heating and cDNA synthesized in 20 μl using the Omniscript RT™ kit (Qiagen) according to the manufacturer's instructions. From this reaction, 2 μl of the cDNA reaction was employed in each PCR reaction. Each PCR reaction contained 0.2 μM of mouse β-actin primers, 0.4 μM of each of the UGT1A specific oligonucleotide primer pair (11;15;50), and 15 μl HOTSTART MASTERMIX™ (Qiagen) in a 30 μl reaction. For UGT1A1, UGT1A3, UGT1A4, UGT1A5, UGT1A6, UGT1A7, UGT1A9 and UGT1A10 the polymerase was activated at 95° C. for 15 minutes followed by 30 cycles of 95° C. for 30 sec, 63° C. for 30 sec, and 72° C. for 45 sec, and a final extension at 72° C. for seven minutes. For UGT1A8 PCR amplification, the polymerase was activated at 95° C. for 15 min followed by 30 cycles of 95° C. for 30 sec, 58° C. for 30 sec, and 72° C. for 45 sec, and a final extension at 72° C. for seven minutes. Analysis of expressed RNA included an antisense oligonucleotide specific for the common region that encoded exon 2, while all of the sense primers encoded a highly specific segment of each exon 1 sequence that allowed for the unique identification of each UGT1A RNA. PCR reactions were carried out in a PerkinElmer Life Sciences GENEAMP™ DNA thermocycler PCR system. Ten microliters of each PCR product was resolved on a 1.5% agarose gel containing 1 μg/ml ethidium bromide and photographed using Polaroid 665 positive/negative film (Polaroid, Cambridge, Mass.).
as §6, §7
as §8, with “RNA. FIG. 6A: Samples of liver microsomal protein (10 μg) was separated by SDS-polyacrylamide gel electrophoresis, and immunoblot analysis performed using UGT1A1-, UGT1A4 or UGT1A6-antibodies. FIG. 6B: Total liver RNA (4 μg) was used in reverse transcription reactions followed by PCR analysis using isozyme-specific oligonucleotides.” for “RNA.”

mouse Cyp3a11 = assay: Cyp3a11 RT-PCR in primary hepatocytes from Tg-UGT1c mice; conditions: primary hepatocytes treated with PCN
[4] = test system: UGT1A gene transcripts (human UGT1 locus); assay: Isoform-specific RT-PCR of UGT1A gene transcripts in tissues of treated Tg-UGT1c mice; type: in vivo, mouse; conditions: liver and small intestine, UGT1+/- mice treated with TCDD
mouse Cyp1a1 = assay: Cyp1a1 Western blot in primary hepatocytes from Tg-UGT1c mice; type: cell-based
Description: Isolation and treatment of mouse transgenic primary hepatocytes. […] Mice were anesthetized by isoflurane inhalation.
Control hepatocyte cultures contained only DMSO (D).

[5] = Tg-UGT1c mice, i.p. every 24 h for 3 days
[6] = liver microsomes, Tg-UGT1c mice, i.p. every 24 h for 3 days

| Structure (SMILES) | Induction of β-estradiol glucuronidation (β-estradiol UGT activity [2]) | UGT1A4 protein induction (human UGT1A4; [5]) | UGT1A1 protein induction (human UGT1A1; [5]) | UGT1A6 protein regulation (human UGT1A6; [5]) | UGT1A1 RNA induction ([3]; liver, Tg-UGT1c mice) | UGT1A4 RNA ([3]; liver, Tg-UGT1c mice) | UGT1A6 RNA induction ([3]; liver, Tg-UGT1c mice) | Expression of UGT1A1, UGT1A3, UGT1A4, UGT1A6 and UGT1A9 gene transcripts ([3]; liver, Tg-UGT1c mice) | UGT1A gene transcript induction ([3]; Tg-UGT1c mice) | further results |
| --- | --- | --- | --- | --- | --- | --- | --- | --- | --- | --- |
| CC(=O)[C@H]1[C@H](C#N)C[C@H]2[C@@H]3CC=C4C[C@@H](O)CC[C@]4(C)[C@H]3CC[C@@]21C [PCN, Pregnenolone-16α-carbonitrile] | induced β-estradiol glucuronidation significantly | inducible in small and large intestine | inducible | predominantly regulated only in large intestine | significant induction | increase | induced | induce expression of each of these genes | induction of all of the UGT1A gene transcripts | UGT1A1 induction, hepatocytes cultured in dexamethasone (UGT1A1): significant induction; Induction of β-estradiol glucuronidation (β-estradiol UGT activity [1]; large intestine microsomes): induced β-estradiol glucuronidation significantly; Induction of UGT activity (β-estradiol) (β-estradiol UGT activity [1]; small intestine microsomes): induced a minimal amount of UGT activity; β-estradiol glucuronidation activity, induced level over induced level in WT mice (β-estradiol UGT activity [2]; small intestine microsomes, PCN treated Tg-UGT1c mice vs PCN treated WT mice): ~10 fold; Microsomal UGT1A4 protein induction (human UGT1A4; mouse, in vivo, ip): induction; Microsomal UGT1A1 protein induction (human UGT1A1; mouse, in vivo, ip): induction; Microsomal UGT1A6 protein induction (human UGT1A6; mouse, in vivo, ip): induction; Cyp3a11 mRNA induction (mouse Cyp3a11): induction |
| Clc1cc2c(cc1Cl)Oc1cc(Cl)c(Cl)cc1O2 [TCDD, 2,3,7,8-Tetrachlorodibenzo-p-dioxin] | most significant induction | inducible in small and large intestine | inducible | predominantly regulated only in large intestine | significant induction | increase | induced | induce expression of each of these genes | induction of all of the UGT1A gene transcripts | Expression of 1A1 and 1A6 [4]: elevated expression; Mouse Cyp1a1 induction (mouse Cyp1a1; TCDD 72 hours): induction; Synergistic induction of Cyp1a1 in presence of glucocorticoids (mouse Cyp1a1; TCDD with 0.1 μM dexamethasone): did not observe a synergistic induction; UGT1A1 induction in presence of dexamethasone over the levels obtained only with TCDD treatment (UGT1A1; primary hepatocytes cultured in 0.1 μM dexamethasone and treated with TCDD): 10 fold and > 10 fold; UGT1A1 induction (UGT1A1; primary hepatocytes, compound alone, TCDD 10 nM 72 hours, PCN 10 μM, dexamethasone 0.1 μM): induction; Microsomal UGT1A4 protein induction (human UGT1A4; [6]): induction; Microsomal UGT1A1 protein induction (human UGT1A1; [6]): induction; Microsomal UGT1A6 protein induction (human UGT1A6; [6]): induction; UGT1A10 induction ([3]; liver, Tg-UGT1c mice): induce; also recorded: significantly induced; Regulation of UGT1A5, UGT1A7 and UGT1A8 ([3]; liver, Tg-UGT1 mice): not regulated |
